According to patent publication US20260116868A1 (Arcus Biosciences, Inc., priority 2023, published 2026):

What follows are compounds tested against T1, Cbl-b (Homo sapiens, UniProt Q13191) (assay: Cbl-b probe displacement HTRF binding assay). Conditions: 0.4 nM Cbl-b, 150 nM BODIPY probe.
T1 construct: biotin (biotinylated protein)
Protocol: The affinity with which compounds of the present disclosure bind to Cbl-b was assessed using probe displacement homologous time resolved fluorescence (HTRF) assays. The assays used a BODIPY™ conjugated probe (Example 54 from WO 2020264398) and biotinylated Cbl-b. The assays were performed in assay buffer consisting of 20 mM Hepes, 150 mM NaCl, 0.01% Triton X-100, 0.5 mM TCEP, 0.01% BSA. On the day of the assay, a 20 point, 1:2 master serial dilution of each compound was prepared in DMSO to span a final concentration range of […] to 0 nM. Two hundred nanoliters of diluted compound was added to each well of a 384-well plate. Fifteen microliters of biotinylated- Cbl-b resuspended in assay buffer were added to each well and the plate incubated for 60 minutes at room temperature prior to addition of 5 μL of BODIPY™ probe in assay buffer. Final assay conditions included 0.4 nM of Cbl-b and 150 nM of BODIPY™ probe. After a further 15 minutes of incubation at room temperature, 5 μl of Streptavidin-Terbium cryptate reagent at 5-fold final concentration was added to each well of the 384-well plate. Binding of a probe to Cbl-b results in an increase of HTRF signal. HTRF signal was measured by Envision plate reader, while competition of a compound of the present disclosure with probe results in a decrease of signal. Percentage maximum activity in each test well was calculated based on DMSO (maximum activity, 0% displacement) and no protein control wells (baseline activity, 100% displacement). Binding affinity was determined from a dose response curve fitted using a standard four parameter fit equation. See Table 7 for data for compounds (Cbl-b Binding (IC50)).

T1 sequence (Q13191 whole entry, species assumed): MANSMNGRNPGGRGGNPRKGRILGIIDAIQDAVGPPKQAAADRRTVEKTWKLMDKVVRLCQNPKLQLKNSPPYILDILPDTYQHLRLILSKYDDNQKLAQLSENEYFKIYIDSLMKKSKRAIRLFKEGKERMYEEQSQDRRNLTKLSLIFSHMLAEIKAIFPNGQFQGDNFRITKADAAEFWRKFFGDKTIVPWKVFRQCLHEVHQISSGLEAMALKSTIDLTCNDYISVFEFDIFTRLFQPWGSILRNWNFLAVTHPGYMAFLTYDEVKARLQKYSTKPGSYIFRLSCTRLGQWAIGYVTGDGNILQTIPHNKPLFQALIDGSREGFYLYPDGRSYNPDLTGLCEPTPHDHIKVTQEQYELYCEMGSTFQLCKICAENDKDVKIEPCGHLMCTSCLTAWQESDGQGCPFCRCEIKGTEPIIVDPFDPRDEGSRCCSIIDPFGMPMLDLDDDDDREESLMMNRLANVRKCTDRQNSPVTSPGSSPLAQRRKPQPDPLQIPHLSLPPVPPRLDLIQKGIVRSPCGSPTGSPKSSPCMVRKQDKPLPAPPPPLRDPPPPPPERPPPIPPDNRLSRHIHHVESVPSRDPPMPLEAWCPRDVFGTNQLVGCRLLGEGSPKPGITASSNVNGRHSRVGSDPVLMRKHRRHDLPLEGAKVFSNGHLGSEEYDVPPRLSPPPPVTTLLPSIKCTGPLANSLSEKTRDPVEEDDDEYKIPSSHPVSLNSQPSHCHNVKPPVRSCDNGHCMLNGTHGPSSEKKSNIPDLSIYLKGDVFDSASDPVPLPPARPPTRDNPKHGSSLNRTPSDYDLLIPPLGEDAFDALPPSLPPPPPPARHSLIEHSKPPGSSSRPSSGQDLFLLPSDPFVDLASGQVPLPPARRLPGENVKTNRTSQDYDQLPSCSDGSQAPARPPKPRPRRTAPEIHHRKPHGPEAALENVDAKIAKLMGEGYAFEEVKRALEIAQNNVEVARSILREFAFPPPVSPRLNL

IC50, < 100 nM:
CO[C@@H](C)CNCc1cc(C(=O)Nc2cc(-c3ccc(C#N)cc3C(=O)N3CC(F)(F)C3)cc(OCC(F)F)n2)c(=O)n(C2CC2)c1 [Example 131, N-(4-{4-cyano-2-[(3,3-difluoro-1-azetidinyl)carbonyl]phenyl}-6-(2,2-difluoroethoxy)-2-pyridyl)-1-cyclopropyl-5-{[(S)-2-methoxypropylamino]methyl}-2-oxo-1,2-dihydronicotinamide]
N#Cc1ccc(-c2cc(NC(=O)c3cc(CNC[C@@H]4CCCO4)cn(C4CC4)c3=O)nc(OCC(F)F)c2)c(C(=O)N2CC(F)(F)C2)c1 [Example 132, N-(4-{4-cyano-2-[(3,3-difluoro-1-azetidinyl)carbonyl]phenyl}-6-(2,2-difluoroethoxy)-2-pyridyl)-1-cyclopropyl-2-oxo-5-[({[(S)-perhydro-2-furyl]methyl}amino)methyl]-1,2-dihydronicotinamide]
O=C(Nc1cc(-c2ccc(Cl)cc2C(=O)N2CC(F)(F)C2)cc(C2CC2)n1)c1cc(CNC[C@@H]2COCCO2)cn(C2CC2)c1=O [Example 133, N-(4-{4-chloro-2-[(3,3-difluoro-1-azetidinyl)carbonyl]phenyl}-6-cyclopropyl-2-pyridyl)-1-cyclopropyl-5-[({[(R)-1,4-dioxan-2-yl]methyl}amino)methyl]-2-oxo-1,2-dihydronicotinamide]
CC(C)CNCc1cc(C(=O)Nc2cc(-c3ccc(Cl)cc3C(=O)N3CC(F)(F)C3)cc(C3CC3)n2)c(=O)n(C2CC2)c1 [Example 134, N-(4-{4-chloro-2-[(3,3-difluoro-1-azetidinyl)carbonyl]phenyl}-6-cyclopropyl-2-pyridyl)-1-cyclopropyl-5-[(isobutylamino)methyl]-2-oxo-1,2-dihydronicotinamide]
C[C@H](NCc1cc(C(=O)Nc2cc(-c3ccc(Cl)cc3C(=O)N3CC(F)(F)C3)cc(C3CC3)n2)c(=O)n(C2CC2)c1)C1CC1 [Example 135, N-(4-{4-chloro-2-[(3,3-difluoro-1-azetidinyl)carbonyl]phenyl}-6-cyclopropyl-2-pyridyl)-1-cyclopropyl-5-{[(S)-1-cyclopropylethylamino]methyl}-2-oxo-1,2-dihydronicotinamide]
O=C(Nc1cc(-c2ccc(Cl)cc2C(=O)N2CC(F)(F)C2)cc(C2CC2)n1)c1cc(CNCCCF)cn(C2CC2)c1=O [Example 136, N-(4-{4-chloro-2-[(3,3-difluoro-1-azetidinyl)carbonyl]phenyl}-6-cyclopropyl-2-pyridyl)-1-cyclopropyl-5-[(3-fluoropropylamino)methyl]-2-oxo-1,2-dihydronicotinamide]
CO[C@@H](C)CNCc1cc(C(=O)Nc2cc(-c3ccc(F)cc3C(=O)N3CC(F)(F)C3)cc(OC(C)C)n2)c(=O)n(C2CC2)c1 [Example 137, N-(4-{2-[(3,3-difluoro-1-azetidinyl)carbonyl]-4-fluorophenyl}-6-isopropoxy-2-pyridyl)-1-cyclopropyl-5-{[(S)-2-methoxypropylamino]methyl}-2-oxo-1,2-dihydronicotinamide]
CC(C)Oc1cc(-c2ccc(F)cc2C(=O)N2CC(F)(F)C2)cc(NC(=O)c2cc(CNC[C@@H]3CCCO3)cn(C3CC3)c2=O)n1 [Example 138, N-(4-{2-[(3,3-difluoro-1-azetidinyl)carbonyl]-4-fluorophenyl}-6-isopropoxy-2-pyridyl)-1-cyclopropyl-2-oxo-5-[({[(S)-perhydro-2-furyl]methyl}amino)methyl]-1,2-dihydronicotinamide]
CC(C)Oc1cc(-c2ccc(F)cc2C(=O)N2CC(F)(F)C2)cc(NC(=O)c2cc(CNCC3CC3)cn(C3CC3)c2=O)n1 [Example 139, N-(4-{2-[(3,3-difluoro-1-azetidinyl)carbonyl]-4-fluorophenyl}-6-isopropoxy-2-pyridyl)-1-cyclopropyl-5-{[(cyclopropylmethyl)amino]methyl}-2-oxo-1,2-dihydronicotinamide]
CC(C)Oc1cc(-c2ccc(C#N)cc2C(=O)N2CC(F)(F)C2)cc(NC(=O)c2cc(CNCC3(F)CCC3)cn(C3CC3)c2=O)n1 [Example 141]
CO[C@@H](C)[C@H](C)NCc1cc(C(=O)Nc2cc(-c3ccc(C#N)cc3C(=O)N3CC(F)(F)C3)cc(OC(C)C)n2)c(=O)n(C2CC2)c1 [Example 142]
CC(C)Oc1cc(-c2ccc(C#N)cc2C(=O)N2CC(F)(F)C2)cc(NC(=O)c2cc(CN[C@@H](C)C3CCC3)cn(C3CC3)c2=O)n1 [Example 143, N-(4-{4-cyano-2-[(3,3-difluoro-1-azetidinyl)carbonyl]phenyl}-6-isopropoxy-2-pyridyl)-5-{[(S)-1-cyclobutylethylamino]methyl}-1-cyclopropyl-2-oxo-1,2-dihydronicotinamide]
O=C(Nc1cc(-c2c(F)cc(Cl)cc2C(=O)N2CC(F)(F)C2)cc(C2CC2)n1)c1cc(CNC[C@@H]2CCCO2)cn(C2CC2)c1=O [Example 145, N-(4-{4-chloro-2-[(3,3-difluoro-1-azetidinyl)carbonyl]-6-fluorophenyl}-6-cyclopropyl-2-pyridyl)-1-cyclopropyl-2-oxo-5-[({[(S)-perhydro-2-furyl]methyl}amino)methyl]-1,2-dihydronicotinamide]
O=C(Nc1cc(-c2c(F)cc(Cl)cc2C(=O)N2CC(F)(F)C2)cc(C2CC2)n1)c1cc(CNC[C@@H]2CCCCO2)cn(C2CC2)c1=O [Example 146, N-(4-{4-chloro-2-[(3,3-difluoro-1-azetidinyl)carbonyl]-6-fluorophenyl}-6-cyclopropyl-2-pyridyl)-1-cyclopropyl-2-oxo-5-[({[(S)-tetrahydro-2H-pyran-2-yl]methyl}amino)methyl]-1,2-dihydronicotinamide]
COCCNCc1cc(C(=O)Nc2cc(-c3c(F)cc(Cl)cc3C(=O)N3CC(F)(F)C3)cc(C3CC3)n2)c(=O)n(C2CC2)c1 [Example 147, N-(4-{4-chloro-2-[(3,3-difluoro-1-azetidinyl)carbonyl]-6-fluorophenyl}-6-cyclopropyl-2-pyridyl)-1-cyclopropyl-5-[(2-methoxyethylamino)methyl]-2-oxo-1,2-dihydronicotinamide]
O=C(Nc1cc(-c2c(F)cc(Cl)cc2C(=O)N2CC(F)(F)C2)cc(C2CC2)n1)c1cc(CNCC2CC2)cn(C2CC2)c1=O [Example 148, N-(4-{4-chloro-2-[(3,3-difluoro-1-azetidinyl)carbonyl]-6-fluorophenyl}-6-cyclopropyl-2-pyridyl)-1-cyclopropyl-5-{[(cyclopropylmethyl)amino]methyl}-2-oxo-1,2-dihydronicotinamide]
CO[C@@H](C)CNCc1cc(C(=O)Nc2cc(-c3ccc(OC(F)F)cc3C(=O)N3CC(F)(F)C3)cc(Cl)n2)c(=O)n(C2CC2)c1 [Example 149, N-(6-chloro-4-{2-[(3,3-difluoro-1-azetidinyl)carbonyl]-4-difluoromethoxyphenyl}-2-pyridyl)-1-cyclopropyl-5-{[(S)-2-methoxypropylamino]methyl}-2-oxo-1,2-dihydronicotinamide]
COc1ccc(-c2cc(NC(=O)c3cc(CNC[C@H](C)OC)cn(C4CC4)c3=O)nc(C3CC3)c2)c(C(=O)N2CC(F)(F)C2)c1 [Example 150, N-(6-Cyclopropyl-4-{2-[(3,3-difluoro-1-azetidinyl)carbonyl]-4-methoxyphenyl}-2-pyridyl)-1-cyclopropyl-5-{[(S)-2-methoxypropylamino]methyl}-2-oxo-1,2-dihydronicotinamide]
COc1ccc(-c2cc(NC(=O)c3cc(CNCC(C)C)cn(C4CC4)c3=O)nc(C3CC3)c2)c(C(=O)N2CC(F)(F)C2)c1 [Example 151, N-(6-Cyclopropyl-4-{2-[(3,3-difluoro-1-azetidinyl)carbonyl]-4-methoxyphenyl}-2-pyridyl)-1-cyclopropyl-5-[(isobutylamino)methyl]-2-oxo-1,2-dihydronicotinamide]
COc1ccc(-c2cc(NC(=O)c3cc(CN[C@@H](C)[C@H](C)OC)cn(C4CC4)c3=O)nc(C3CC3)c2)c(C(=O)N2CC(F)(F)C2)c1 [Example 152, N-(6-Cyclopropyl-4-{2-[(3,3-difluoro-1-azetidinyl)carbonyl]-4-methoxyphenyl}-2-pyridyl)-1-cyclopropyl-5-{[(1S,2S)-2-methoxy-1-methylpropylamino]methyl}-2-oxo-1,2-dihydronicotinamide]
COc1ccc(-c2cc(NC(=O)c3cc(CNC[C@@H]4CCCO4)cn(C4CC4)c3=O)nc(C3CC3)c2)c(C(=O)N2CC(F)(F)C2)c1 [Example 153, N-(6-Cyclopropyl-4-{2-[(3,3-difluoro-1-azetidinyl)carbonyl]-4-methoxyphenyl}-2-pyridyl)-1-cyclopropyl-2-oxo-5-[({[(S)-perhydro-2-furyl]methyl}amino)methyl]-1,2-dihydronicotinamide]
